Assay results taken from patent US20260144798A1, “Disruption of Vascular Smooth Muscle Relaxation by Carfilzomib May be the Primary Reason for CFZ-Induced Vascular Dysfunction” (AMGEN INC., priority 2019, published 2026).

Key:
rat aortic rings [1] = test: Basal vascular tone of isolated rat aortic rings, isometric myograph
Protocol: (§1) An isometric myograph (DMT 620M) was used for ex vivo measurement of vascular function. Eight-to 10-week old Sprague Dawley rats (purchased from Charles River Laboratories, Wilmington, MA) were first anesthetized with 3% isoflurane and then euthanized using inhaled desflurane. The aortas were isolated in an ice-cold, oxygenated (95% O2, 5% CO2) Krebs-Henseleit buffer (118.3 mM NaCl, 4.7 mM KCl, 1.2 mM MgSO4, 1.2 mM KH2PO4, 2.5 mM CaCl2, 25 mM NaHCO3, and 11.0 mM glucose; purchased from Sigma-Aldrich, St. Louis, MO). The thoracic aorta was carefully cleaned to remove perivascular fat and cut into 2-mm rings that were mounted between two stainless steel wires in the myograph chamber containing 8 mL of Krebs-Henseleit buffer in 95% O2 and 5% CO2 at 37° C. First, the rings were equilibrated in the chamber for 20 minutes, followed by a gradual increase of mechanical stretch until a final stretch of 10 mN (Newton) was reached. After an additional incubation with fresh buffer for 30 minutes, the rings were constricted with 8 mL of 80 mM KPSS (43 mM NaCl, 80 mM KCl, 2.5 mM CaCl2, 1.2 mM MgSO4, 1.2 mM KH2PO4, 25.0 mM NaHCO3, and 11.0 mM glucose) for 15 to 20 minutes, followed by 3 washes with the Krebs-Henseleit buffer until the force returned to the baseline stretch. The tension of the aortic rings was continuously measured with the Lab Chart 7 data acquisition system (ADInstruments, Colorado Springs, CO). In Some of the experiments the aortic rings were pre-treated with 100 μM N(gamma)-nitro-L-arginine methyl ester (L-NAME; Sigma-Aldrich) and 10 μM indomethacin for 10 minutes prior to the pre-incubation with CFZ (Amgen Inc.) for 2 hours. After an additional incubation with fresh buffer for 30 minutes, the rings were constricted with 8 mL of 80 mM KPSS (43 mM NaCl, 80 mM KCl, 2.5 mM CaCl2, 1.2 mM MgSO4, 1.2 mM KH2PO4, 25.0 mM NaHCO3, and 11.0 mM glucose) for 15 to 20 minutes, followed by 3 washes with the Krebs-Henseleit buffer until the force returned to the baseline stretch. The tension of the aortic rings was continuously measured with the Lab Chart 7 data acquisition system (ADInstruments, Colorado Springs, CO).
To assess the effect of CFZ on vascular contraction, the aortic rings were pre-treated with or without CFZ for 2 hours, followed by treatment with an increasing concentration of phenylephrine (PE) from 10 nM to 1 μM. After the maximum contraction was achieved, the aortic rings were washed 3 times until the force returned to baseline. The contraction was continuously measured and plotted as percent contraction normalized to the response of KPSS. […] The relaxation was continuously measured and plotted as percent relaxation normalized to the response with 1 μM PE. […]

rat aortic rings [2] = test: Nifedipine-induced relaxation of rat aortic rings; settings: pretreatment of aortic rings with CFZ (FIG. 2C)
Protocol: An isometric myograph (DMT 620M) was used for ex vivo measurement of vascular function. Eight-to 10-week old Sprague Dawley rats (purchased from Charles River Laboratories, Wilmington, MA) were first anesthetized with 3% isoflurane and then euthanized using inhaled desflurane. The aortas were isolated in an ice-cold, oxygenated (95% O2, 5% CO2) Krebs-Henseleit buffer (118.3 mM NaCl, 4.7 mM KCl, 1.2 mM MgSO4, 1.2 mM KH2PO4, 2.5 mM CaCl2, 25 mM NaHCO3, and 11.0 mM glucose; purchased from Sigma-Aldrich, St. Louis, MO). […] The tension of the aortic rings was continuously measured with the Lab Chart 7 data acquisition system (ADInstruments, Colorado Springs, CO). […]
(§2) To assess the effect of CFZ on vascular contraction, the aortic rings were pre-treated with or without CFZ for 2 hours, followed by treatment with an increasing concentration of phenylephrine (PE) from 10 nM to 1 μM. […] The contraction was continuously measured and plotted as percent contraction normalized to the response of KPSS. […] The relaxation was continuously measured and plotted as percent relaxation normalized to the response with 1 μM PE.

rat aortic rings [3] = test: sGC activator (cinaciguat, riociguat)-induced relaxation of rat aortic rings; settings: cinaciguat or riociguat (FIG. 4C)
Protocol: as §1, with “In Some of the experiments the aortic rings were pre-treated with 100 μM N(gamma)-nitro-L-arginine methyl ester (L-NAME; Sigma-Aldrich) and 10 μM indomethacin for 10 minutes prior to the pre-incubation with CFZ (Amgen Inc.) for 2 hours. After an additional incubation with fresh buffer for 30 minutes, the rings were constricted with 8 mL of 80 mM KPSS (43 mM NaCl, 80 mM KCl, 2.5 mM CaCl2, 1.2 mM MgSO4, 1.2 mM KH2PO4, 25.0 mM NaHCO3, and 11.0 mM glucose) for 15 to 20 minutes, followed by 3 washes with the Krebs-Henseleit buffer until the force returned to the baseline stretch.” left out
as §2

P38 pathway = test: Western blot for activation of p38 pathway in rat aortic rings; settings: 2.7 μM CFZ 1.5 hours, with or without indomethacin plus LNAME (FIG. 7)
Protocol: Aortas were isolated from 8-10 week old CD® (Sprague Dawley) rats (from Charles River Laboratories) in an ice-cold, oxygenated (95% O2, 5% CO2) Krebs-Henseleit buffer. The aortas were then carefully cleaned to remove perivascular fat and cut into 2-mm rings that were mounted between two stainless steel wires in the myograph chamber containing 8 mL of Krebs-Henseleit buffer in 95% O2 and 5% CO2 at 37° C. Rings were stretch until a final stretch of 10 mN (Newton) was reached and incubated for 30 mins for equilibration. The rings were constricted with 8 mL of 80 mM KPSS for 15 minutes, followed by 3 washes with the Krebs-Henseleit buffer until the force returned to the baseline stretch. The aorta were then treated for one of the following experiments: • For protein expression studies the aortic rings were pre-treated with 100 μM N(gamma)-nitro-L-arginine methyl ester (L-NAME; Sigma-Aldrich) and 10 μM indomethacin for 10 minutes prior to the pre-incubation with CFZ (Amgen Inc.) for 1.5 hours. The rings were then isolated for protein expression analysis. […]

[4] = system: isolated rabbit hearts and aortic strips; settings: cited from earlier work
mice = settings: depending on dosage and administration schedule; cited from earlier work

Compound: CC(C)C[C@H](NC(=O)[C@H](CCc1ccccc1)NC(=O)CN1CCOCC1)C(=O)N[C@@H](Cc1ccccc1)C(=O)N[C@@H](CC(C)C)C(=O)[C@@]1(C)CO1 [CFZ, carfilzomib]
- percent contraction under eNOS inhibition (limited NO availability) (rat aortic rings [1]; 100 μM L-NAME and 10 μM indomethacin 10 minutes prior to 2-hour CFZ treatment, vs vehicle (FIG. 1B)): significant but minor increase of percent contraction
- vascular tone (contraction normalized to 80 mM KPSS) (rat aortic rings [1]; 100 μM LNAME+10 μM indomethacin, 2.7 μM CFZ for 3 hour, vs vehicle (FIG. 10)): increase in vascular tone compared to vehicle
- percent contraction (basal vascular tone) (rat aortic rings [1]; rings pretreated with CFZ without L-NAME, compared with vehicle control (FIG. 1A)): did not affect vascular tone
- effect on vascular relaxation in the presence of nifedipine (rat aortic rings [2]): did not appear to significantly affect vascular relaxation
- effect on VSM relaxation in the presence of sGC activators (rat aortic rings [3]): did not interfere with VSM relaxation
- activation of p38 pathway (P38 pathway): caused activation of P38 pathway with or without endothelium dependent relaxing factors
- coronary perfusion pressure, resting vascular tone, and spasmogenic effects [4]: increased
- vasodilating effect induced by acetylcholine (ACh) [4]: sharply reduced
- effect on AMPKα/mTORC1 and PI3K/Akt/eNOS pathways (mice): inhibit AMPKα/mTORC1 pathways
